These results are taken from patent publication US20020156068A1, “Anti-psychosis combination” (priority 2001, published 2002).

The assay concerns MK-801-induced hyperactivity. The experiment in a line: Antagonism of MK801-induced hyperlocomotion (locomotor activity cages). The class given is in vivo, rat. The following applies: 180 min; for MK-801-induced hyperactivity as measured by a decrease in ambulation: male Sprague-Dawley rats, AR116081 10 or 20 mg/kg oral, each alone; for MK-801-induced hyperactivity as measured by a decrease in ambulation / effect of MK801 on fine movements, a measure of stereotypies / effect on rear measures (rearing activity): Haloperidol 0.05 mg/kg s.c., MK-801 0.3 mg/kg s.c.; for effect of MK801 on fine movements, a measure of stereotypies / effect on rear measures (rearing activity): AR116081 20 mg/kg oral, alone or combined. How it is done:
Antagonism of MK801-Induced Hyperlocomotion: a Model of Potential Antipsychotic (“antipositive”) Activity
Because part of the symptomatology of schizophrenia may be related to altered glutamate transmission at the NMDA receptor, the reversal of MK-801-induced hyperlocomotor activity in rodents has been used routinely as an animal model for detecting potential antipsychotic activity (Hoffinan, D. C., J. Neural. Transm. 89:1-10, 1992).
Motor function was assessed using automated locomotor activity cages (Hamilton-Kinder, San Diego) comprised of standard rodent cages surrounded by photocell beams, allowing for automated recording of motor activity. The animals were under no motivational constraints and were free to move around the cages. In this test, male Sprague-Dawley rats (200-325 g body weight) were food deprived overnight prior to testing. On the testing day, they were administered AR116081 orally at a dose of 10 or 20 mg/kg base (substance # 127190 suspended in 1% Tween 80 and 99% distilled water solution, volume injection 10 cc/kg) immediately followed by subcutaneous administration of Haloperidol at a dose of 0.05 mg/kg base (RBI lot # TOW-1990 dissolved in distilled water and pH at 5-6, volume injection 1 cc/kg). The treated rats were placed in the locomotor activity cages 30 min after co-administration of compounds for a 30 min habituation period to the cages and recording of basal locomotor activity. Animals then received (via subcutaneous administration) (+)-MK801 hydrogen maleate at a dose of 0.3 mg/kg salt (RBI/Sigma Lot #108H4705 dissolved in saline, volume injection 1 cc/kg). The rats were immediately placed back into the locomotor activity cages, and activity was measured for 180 min.

Each structure is given as a SMILES string. Structures can show the parent of a compound that is named as a salt.

With `Cn1ncc(Br)c1-c1cccc(NC(=O)Nc2ccc(Cl)cc2)c1` [AR116081, N-[3-(4-bromo-2-methylpyrazol-3-yl)phenyl][(4-chlorophenyl)amino]carboxamide], the “MK-801-induced hyperactivity as measured by a decrease in ambulation” value is reported as “attenuated”. Also, under “rats”, the “effect of MK801 on fine movements, a measure of stereotypies” value is listed as “attenuated but did not significantly reverse” and the “effect on rear measures (rearing activity)” value is “No effects”.
As to `O=C(CCCN1CCC(O)(c2ccc(Cl)cc2)CC1)c1ccc(F)cc1` [Haloperidol], the “MK-801-induced hyperactivity as measured by a decrease in ambulation” value is recorded as “attenuated”. Also, for the setting “rats”, the “effect of MK801 on fine movements, a measure of stereotypies” value is reported as “attenuated but did not significantly reverse” and the “effect on rear measures (rearing activity)” value is reported as “No effects”.
As for `C[C@]12N[C@H](Cc3ccccc31)c1ccccc12` [MK-801, (+)-MK801 hydrogen maleate], the “motor parameters recorded: ambulation, fine movement and rearing activity” value (rats, MK-801 0.3 mg/kg s.c. alone) is on record as “significant increase”.
